Source: ChEMBL document CHEMBL5725283, “2-pyridinecarboxamide derivatives, compositions containing such compounds, and methods of treatment” (2016)

Assay: Glucokinase Activity Assay: Recombinant human liver glucokinase was expressed as a FLAG fusion protein in E. coli, and purified on ANTIFLAG M2 AFFINITY GEL (Sigma). The assay was carried out at 30° C. in a 96-well plate. In the plate was distributed 69 μl each of assay buffer (25 mM Hepes Buffer: pH=7.2, 2 mM MgCl2, 1 mM ATP, 0.5 mM TNAD, 1 mM dithiothreitol), to which was added 1 μl of a DMSO solution of the compound or DMSO as control. Then, 20 μl of pre-ice-cooled enzyme mixture (FLAG-GK, 20 U/ml G6PDH) was distributed thereto, to which was added 10 μl of 25 mM glucose as substrate to initiate the reaction (final glucose concentration=2.5 mM). After starting the reaction, the absorbance at 405 nm was measured every 30 seconds for 10 minutes to evaluate the compound based on the initial increase for 5 minutes. FLAG-GK was added so that the increase of absorbance after 5 minutes fell between 0.05 to 0.1 in the presence of 1% DMSO.

Row | EC50 [nM] | Structure (SMILES)
1 | 13.4 | CCOC(=O)CSc1cnc(NC(=O)c2nc(Sc3nncn3C)ccc2Sc2ccc(F)cc2)s1
2 | 137 | Cn1cnnc1Sc1ccc(Sc2ccc(F)cc2)c(C(=O)Nc2nc(CC(=O)O)cs2)n1
3 | 49.3 | CCOC(=O)Cc1csc(NC(=O)c2nc(Sc3nncn3C)ccc2Sc2ccc(F)cc2)n1
